Measurements from EP4813993A1, “COMPOUND, PREPARATION METHOD THEREFOR, AND USE THEREOF” (Sichuan Kelun Pharmaceutical Research Institute Co., Ltd., priority 2023, dated 2025).

Target: T1, Nav1.8 channels (Homo sapiens, UniProt Q9Y5Y9)
T1 construct: expressed in transfected cells
Assay: Manual patch-clamp, current of stably overexpressed Nav1.8 channels (resting state voltage program)
Type: cell-based
Settings: read-out: Inhibition rate %; for inhibition at 0.01 µM: concentration of 10 nM; for inhibition at 0.001 µM: concentration of 1 nM
Procedure: Experimental Example 1: Effects of test substances on current of stably overexpressed Nav1.8 channels monitored via manual patch-clamp technique
Test compounds were dissolved in dimethyl sulfoxide (DMSO).
The extracellular fluid was as follows: 140 mM NaCl, 3.5 mM KCl, 1 mM MgCl2•6H2O, 2 mM CaCl2•2H2O, 10 mM D-Glucose, 10 mM HEPES, 1.25 mM NaH2PO4•2H2O; the pH was adjusted to 7.4 with NaOH. The intracellular fluid was as follows: 50 mM CsCl, 10 mM NaCl, 10 mM HEPES, 60 mM CsF, 20 mM EGTA; the pH was adjusted to 7.2 with CsOH.
2. Experimental materials and instruments
• 1) patch-clamp amplifier: EPC 10 (HEKA) • 2) micromanipulator: MP225 (Sutter Instrument) • 3) inverted microscope: MF53 (Mshot) • 4) micropipette puller: P97 (Sutter Instrument) • 5) capillary glass tube: BF150-86-10 (Sutter Instrument)
3. Experimental procedures
• 1) After the compounds were prepared into solutions with specified concentrations, the solutions were sequentially added to the pipeline of the drug delivery system and labeled. • 2) The cell climbing coverslip was placed in the recording chamber, the appropriate cells were selected under the inverted microscope, and the position of the drug delivery tip was adjusted. • 3) A capillary glass tube was pulled into a suitable recording electrode using the micropipette puller, and then the electrode filled with the intracellular fluid was mounted in the microelectrode holder. The micromanipulator was adjusted under the inverted microscope to allow the recording electrode to contact the cell, and negative pressure was applied to the electrode to form a high-resistance seal. At this time, fast capacitance compensation was performed, and then the application of negative pressure was continued to break the cell membrane, forming a whole-cell recording mode. Finally, slow capacitance compensation was performed, and related parameters were recorded. • 4) After the cell current stabilized, administration was started. Each concentration of the drug was applied for five minutes or until the current stabilized before proceeding to monitor the next concentration. The drug solutions were administered via gravity-fed delivery, flowing through the recording chamber to act on the cells in an ascending order of concentration (from low to high). A peristaltic pump was employed for solution exchange in the recording process.
4 Test voltage program (resting state) and results
After the formation of the whole-cell seal, the cell voltage was clamped at -120 mV, followed by depolarization to 0 mV using a square-wave pulse with a duration of 50 ms to elicit Nav1.8 currents. This procedure was repeated every 20 s to monitor the maximum current induced by the square wave. After the current stabilized, the test compounds were administered. Once the response stabilized, the intensity of the current block was calculated.

T1 sequence (Q9Y5Y9 whole entry): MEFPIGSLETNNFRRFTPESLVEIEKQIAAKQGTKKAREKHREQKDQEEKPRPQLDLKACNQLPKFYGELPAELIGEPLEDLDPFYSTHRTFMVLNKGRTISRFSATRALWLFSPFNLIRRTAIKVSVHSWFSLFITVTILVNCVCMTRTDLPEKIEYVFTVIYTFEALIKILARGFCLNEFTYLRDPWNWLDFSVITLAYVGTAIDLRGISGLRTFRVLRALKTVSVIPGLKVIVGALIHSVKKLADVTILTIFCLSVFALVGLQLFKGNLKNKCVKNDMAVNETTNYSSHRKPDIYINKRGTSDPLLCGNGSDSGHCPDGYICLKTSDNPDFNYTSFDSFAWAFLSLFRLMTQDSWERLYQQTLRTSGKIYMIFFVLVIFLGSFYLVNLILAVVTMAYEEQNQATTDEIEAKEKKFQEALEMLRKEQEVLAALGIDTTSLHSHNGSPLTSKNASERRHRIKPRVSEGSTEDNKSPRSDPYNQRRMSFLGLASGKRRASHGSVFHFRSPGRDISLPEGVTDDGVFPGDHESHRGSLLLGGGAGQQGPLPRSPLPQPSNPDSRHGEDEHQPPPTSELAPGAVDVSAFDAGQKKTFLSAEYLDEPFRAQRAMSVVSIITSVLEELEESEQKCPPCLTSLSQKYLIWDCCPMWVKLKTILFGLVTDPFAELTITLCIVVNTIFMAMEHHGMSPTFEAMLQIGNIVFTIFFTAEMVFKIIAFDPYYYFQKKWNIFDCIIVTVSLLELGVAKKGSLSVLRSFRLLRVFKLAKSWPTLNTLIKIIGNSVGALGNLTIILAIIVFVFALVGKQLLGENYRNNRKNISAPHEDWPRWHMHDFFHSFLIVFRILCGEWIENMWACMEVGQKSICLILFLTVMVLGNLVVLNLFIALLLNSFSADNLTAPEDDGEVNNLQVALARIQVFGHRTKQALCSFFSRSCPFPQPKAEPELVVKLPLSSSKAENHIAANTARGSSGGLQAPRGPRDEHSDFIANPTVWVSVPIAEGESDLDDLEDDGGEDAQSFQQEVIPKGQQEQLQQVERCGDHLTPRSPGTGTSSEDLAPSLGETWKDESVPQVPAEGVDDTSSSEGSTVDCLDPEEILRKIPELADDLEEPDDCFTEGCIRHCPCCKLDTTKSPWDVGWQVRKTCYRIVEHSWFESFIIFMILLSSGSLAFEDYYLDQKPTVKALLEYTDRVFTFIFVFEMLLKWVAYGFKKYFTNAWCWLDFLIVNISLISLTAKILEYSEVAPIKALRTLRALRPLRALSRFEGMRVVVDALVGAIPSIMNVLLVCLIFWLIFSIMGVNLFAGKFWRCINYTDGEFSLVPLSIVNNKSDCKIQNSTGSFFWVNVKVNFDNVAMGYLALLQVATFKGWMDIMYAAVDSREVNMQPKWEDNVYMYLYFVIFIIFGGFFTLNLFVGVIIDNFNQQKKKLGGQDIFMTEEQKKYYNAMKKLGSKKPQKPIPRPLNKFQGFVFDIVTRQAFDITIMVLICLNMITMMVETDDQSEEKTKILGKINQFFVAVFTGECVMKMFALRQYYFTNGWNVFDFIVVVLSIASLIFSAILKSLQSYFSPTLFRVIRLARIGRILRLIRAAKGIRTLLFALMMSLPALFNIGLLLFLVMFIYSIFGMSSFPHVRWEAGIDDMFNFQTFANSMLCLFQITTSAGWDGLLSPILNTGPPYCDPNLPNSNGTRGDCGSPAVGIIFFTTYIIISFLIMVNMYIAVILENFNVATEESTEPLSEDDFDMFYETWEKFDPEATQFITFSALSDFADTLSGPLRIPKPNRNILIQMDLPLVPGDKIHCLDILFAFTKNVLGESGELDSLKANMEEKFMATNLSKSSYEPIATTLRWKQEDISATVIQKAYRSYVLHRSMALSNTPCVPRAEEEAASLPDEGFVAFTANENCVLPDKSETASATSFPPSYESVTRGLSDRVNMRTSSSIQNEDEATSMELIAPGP

Structure (SMILES) | inhibition at 0.01 µM | inhibition at 0.001 µM
COc1c([C@@H]2C[C@](C)(C(F)(F)F)S[C@H]2C(=O)Nc2ccnc(OCC(O)CO)c2)ccc(F)c1F (stereo partly drawn) [Compound 191-A, (2R,3S,5R)-3-(3,4-difluoro-2-methoxyphenyl)-N-(2-(2,3-dihydroxypropoxy)pyridin-4-yl)-5-methyl-5-(trifluoromethyl)tetrahydrothiophene-2-carboxamide] | 88.8% | –
COc1c(C2CC(C)(C(F)(F)F)SC2C(=O)Nc2ccnc(S(C)(=O)=O)c2)ccc(F)c1F (stereo not drawn) [Compound 192, (4-(3-(3,4-difluoro-2-methoxyphenyl)-5-methyl-5-(trifluoromethyl)tetrahydrothiophene-2-carboxamido)-2-methylsulfonyl)pyridine] | 96.4% | –
COc1c(C2CC(C)(C(F)(F)F)SC2C(=O)Nc2conc2C)ccc(F)c1F (stereo not drawn) [Compound 197, 3-(3,4-difluoro-2-methoxyphenyl)-5-methyl-N-(3-methylisoxazol-4-yl)-5-(trifluoromethyl)tetrahydrothiophene-2-carboxamide] | 91.1% | –
COc1c(C2CC(C)(C(F)(F)F)SC2C(=O)Nc2cn(C(F)F)nc2C)ccc(F)c1F (stereo not drawn) [Compound 199, (4-(3-(3,4-difluoro-2-methoxyphenyl)-5-methyl-5-(trifluoromethyl)tetrahydrothiophene-2-carboxamido)-1-difluoromethyl-3-methyl)pyrazole] | 89.4% | –
COc1c(C2CC(C)(C(F)(F)F)SC2C(=O)Nc2ccc3nnnn3c2)ccc(F)c1F (stereo not drawn) [Compound 202, 3-(3,4-difluoro-2-methoxyphenyl)-5-methyl-N-(tetrazolo[1,5-a]pyridin-6-yl)-5-(trifluoromethyl)tetrahydrothiophene-2-carboxamide] | – | 81%
COc1c(C2CC(C)(C(F)(F)F)SC2C(=O)Nc2ccn3nnnc3c2)ccc(F)c1F (stereo not drawn) [Compound 203, 3-(3,4-difluoro-2-methoxyphenyl)-5-methyl-N-(tetrazolo[1,5-a]pyridin-7-yl)-5-(trifluoromethyl)tetrahydrothiophene-2-carboxamide] | – | 80.4%
COc1c(C2CC(C)(C(F)(F)F)SC2C(=O)Nc2ccc3c(c2)COB3O)ccc(F)c1F (stereo not drawn) [Compound 219, 3-(3,4-difluoro-2-methoxyphenyl)-N-(1-hydroxy-1,3-dihydrobenzo[c][1,2]oxaborol-5-yl)-5-methyl-5-(trifluoromethyl)tetrahydrothiophene-2-carboxamide] | 88% | –
[2H]C1(C(=O)Nc2ccnc(O)c2)SC(C)(C(F)(F)F)CC1c1ccc(F)c(F)c1OC (stereo not drawn) [Compound 222, 3-(3,4-difluoro-2-methoxyphenyl)-N-(2-hydroxypyridin-4-yl)-5-methyl-5-(trifluoromethyl)tetrahydrothiophene-2-d-2-carboxamide] | 97% | –
COc1c(C2CC(C)(C(F)(F)F)SC2C(=O)Nc2cccc(S(C)(=N)=O)c2)ccc(F)c1F (stereo not drawn) [Compound 225, 3-(3,4-difluoro-2-methoxyphenyl)-5-methyl-N-(3-(S-methylsulfonimidoyl)phenyl)-5-(trifluoromethyl)tetrahydrothiophene-2-carboxamide] | – | 91.2%
COc1c([C@@H]2C[C@](C)(C(F)(F)F)S[C@H]2C(=O)Nc2ccc(C(=O)O)c(O)c2)ccc(F)c1F [Compound 226-A, 4-((2R,3S,5R)-3-(3,4-difluoro-2-methoxyphenyl)-5-methyl-5-(trifluoromethyl)tetrahydrothiophene-2-carboxamido)-2-hydroxybenzoic acid] | – | 32.2%
COc1c(C2CC(C)(C(F)(F)F)SC2C(=O)Nc2ccc(F)c(S(C)(=N)=O)c2)ccc(F)c1F (stereo not drawn) [Compound 227, 3-(3,4-difluoro-2-methoxyphenyl)-N-(4-fluoro-3-(S-methylsulfonimidoyl)phenyl)-5-methyl-5-(trifluoromethyl)tetrahydrothiophene-2-carboxamide] | 97.7% | –
COc1c([C@@H]2C[C@](C)(C(F)(F)F)S[C@H]2C(=O)Nc2ccc(B3OC(C)(C)C(C)(C)O3)c(F)c2)ccc(F)c1F [Compound 229-A, (2R,3S,5R)-3-(3,4-difluoro-2-methoxyphenyl)-N-(3-fluoro-4-(4,4,5,5-tetramethyl-1,3,2-dioxaborolan-2-yl)phenyl)-5-methyl-5-(trifluoromethyl)tetrahydrothiophene-2-carboxamide] | – | 48.6%
COc1c([C@@H]2C[C@](C)(C(F)(F)F)S[C@H]2C(=O)Nc2ccc(SC)nc2)ccc(F)c1F [Compound 231-A, (2R,3S,5R)-3-(3,4-difluoro-2-methoxyphenyl)-5-methyl-N-(6-(methylthio)pyridin-3-yl)-5-(trifluoromethyl)tetrahydrothiophene-2-carboxamide] | 83.7% | –
COc1c(C2CC(C)(C(F)(F)F)SC2C(=O)Nc2ccc([S+](C)[O-])nc2)ccc(F)c1F (stereo not drawn) [Compound 232, 3-(3,4-difluoro-2-methoxyphenyl)-5-methyl-N-(6-(methylsulfinyl)pyridin-3-yl)-5-(trifluoromethyl)tetrahydrothiophene-2-carboxamide] | 96.1% | 78.4%
COc1c([C@@H]2C[C@](C)(C(F)(F)F)S[C@H]2C(=O)Nc2ccc([S+](C)[O-])nc2)ccc(F)c1F (stereo partly drawn) [Compound 238-A, (2R,3S,5R)-3-(3,4-difluoro-2-methoxyphenyl)-5-methyl-N-(6-(methylsulfinyl)pyridin-3-yl)-5-(trifluoromethyl)tetrahydrothiophene-2-carboxamide] | – | 85.5%
COc1c([C@@H]2C[C@](C)(C(F)(F)F)S[C@H]2C(=O)Nc2cccc(S(=O)(=O)N(C)C)c2)ccc(F)c1F [Compound 240-A, (2R,3S,5R)-3-(3,4-difluoro-2-methoxyphenyl)-N-(3-(N,N-dimethylsulfamoyl)phenyl)-5-methyl-5-(trifluoromethyl)tetrahydrothiophene-2-carboxamide] | 87.4% | –
CNS(=O)(=O)c1cccc(NC(=O)[C@@H]2S[C@@](C)(C(F)(F)F)C[C@H]2c2ccc(F)c(F)c2OC)c1 [Compound 241-A, (2R,3S,5R)-3-(3,4-difluoro-2-methoxyphenyl)-5-methyl-N-(3-(N-methylsulfamoyl)phenyl)-5-(trifluoromethyl)tetrahydrothiophene-2-carboxamide] | 95.4% | –
COc1c([C@@H]2C[C@](C)(C(F)(F)F)S[C@H]2C(=O)Nc2ccnc(C(F)F)c2)ccc(F)c1F [Compound 244-A, (2R,3S,5R)-3-(3,4-difluoro-2-methoxyphenyl)-N-(2-(difluoromethyl)pyridin-4-yl)-5-methyl-5-(trifluoromethyl)tetrahydrothiophene-2-carboxamide] | – | 87.8%
COc1c([C@@H]2C[C@](C)(C(F)(F)F)S[C@H]2C(=O)Nc2ccc3nonc3c2)ccc(F)c1F [Compound 248-A, (2R,3S,5R)-N-(benzo[c][1,2,5]oxadiazol-5-yl)-3-(3,4-difluoro-2-methoxyphenyl)-5-methyl-5-(trifluoromethyl)tetrahydrothiophene-2-carboxamide] | – | 72.6%
COc1c([C@@H]2C[C@](C)(C(F)(F)F)S[C@H]2C(=O)Nc2ccc(N)c(S(N)(=O)=O)c2)ccc(F)c1F [Compound 249-A, (2R,3S,5R)-N-(4-amino-3-sulfamoylphenyl)-3-(3,4-difluoro-2-methoxyphenyl)-5-methyl-5-(trifluoromethyl)tetrahydrothiophene-2-carboxamide] | – | 81.6%
